Activity calls are given as the source filed them.
Key:
[1] = activation of miR-122 Renilla sensor silencing – cell-based, Huh7 psiCHECK-miR122, Renilla luciferase, cherry-picked, dose response (AID 651956); type: functional;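 also: huh7 hepatoma cells stably carrying a psiCHECK-2 miR-122 sensor plasmid; renilla luciferase signal reporting endogenous miR-122 activity after 48 h compound exposure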
[2] = general mammalian cell viability loss – activator set, cherry-pick, cytotoxicity control for miR-122 modulator project, dose response (AID 720690); type: functional, cell-based;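 also: HEK293T human cells scored for general mammalian cytotoxicity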
[3] = T. cruzi growth inhibition in host cells, dose response, cell-based, plate reader, dry powder, set 2 (AID 652275); type: functional
[4] = general mammalian cell viability loss – inhibitor set, cherry-pick, set 2, cytotoxicity control for miR-122 modulator project, dose response (AID 720697); type: functional, cell-based
[5] = anti-trypanosomal activity in BESM host cells – imaging, CA-I/72 strain, bovine embryo skeletal muscle, dry powder, dose response (AID 651885); type: functional, cell-based
[6] = Counterscreen for […] of the human trace amine associated receptor 1 (TAAR1): Fluorescence-based cell-based high throughput dose response assay to identify nonselective Ga16 agonists.; type: functional
[7] = target: T1, Trace amine-associated receptor 1 (Homo sapiens, UniProt Q96RJ0); assay: Fluorescence-based cell-based high throughput dose response assay to identify antagonists of the human trace amine associated receptor 1 (TAAR1).; type: functional
T1 sequence (Q96RJ0 whole entry): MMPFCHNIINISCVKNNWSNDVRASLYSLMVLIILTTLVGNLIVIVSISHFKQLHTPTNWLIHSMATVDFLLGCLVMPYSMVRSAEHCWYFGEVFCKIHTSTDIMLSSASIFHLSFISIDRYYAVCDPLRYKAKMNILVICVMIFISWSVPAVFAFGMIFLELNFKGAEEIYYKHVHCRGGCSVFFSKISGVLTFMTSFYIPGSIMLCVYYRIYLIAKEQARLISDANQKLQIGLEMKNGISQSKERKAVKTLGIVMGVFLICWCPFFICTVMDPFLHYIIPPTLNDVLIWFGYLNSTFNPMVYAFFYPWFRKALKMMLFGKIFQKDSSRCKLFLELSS

[8] = Counterscreen for antagonists of the human trace amine associated receptor 1 (hTAAR1): Fluorescence-based cell-based high throughput dose response assay to identify nonselective Ga16 antagonists.; type: functional
[9] = target: T1, Trace amine-associated receptor 1; assay: Counterscreen for antagonists of the human trace amine associated receptor 1 (hTAAR1): Fluorescence-based cell-based high throughput dose response assay to identify TAAR1 Agonists.; type: functional
[10] = target: T2, Replicative DNA helicase DnaB (Mycobacterium tuberculosis, UniProt P9WMR3); assay: DnaB intein splicing inhibitors, dose response, biochemical, cell-free fluorescence (AID 449749); type: functional
T2 sequence (P9WMR3 whole entry): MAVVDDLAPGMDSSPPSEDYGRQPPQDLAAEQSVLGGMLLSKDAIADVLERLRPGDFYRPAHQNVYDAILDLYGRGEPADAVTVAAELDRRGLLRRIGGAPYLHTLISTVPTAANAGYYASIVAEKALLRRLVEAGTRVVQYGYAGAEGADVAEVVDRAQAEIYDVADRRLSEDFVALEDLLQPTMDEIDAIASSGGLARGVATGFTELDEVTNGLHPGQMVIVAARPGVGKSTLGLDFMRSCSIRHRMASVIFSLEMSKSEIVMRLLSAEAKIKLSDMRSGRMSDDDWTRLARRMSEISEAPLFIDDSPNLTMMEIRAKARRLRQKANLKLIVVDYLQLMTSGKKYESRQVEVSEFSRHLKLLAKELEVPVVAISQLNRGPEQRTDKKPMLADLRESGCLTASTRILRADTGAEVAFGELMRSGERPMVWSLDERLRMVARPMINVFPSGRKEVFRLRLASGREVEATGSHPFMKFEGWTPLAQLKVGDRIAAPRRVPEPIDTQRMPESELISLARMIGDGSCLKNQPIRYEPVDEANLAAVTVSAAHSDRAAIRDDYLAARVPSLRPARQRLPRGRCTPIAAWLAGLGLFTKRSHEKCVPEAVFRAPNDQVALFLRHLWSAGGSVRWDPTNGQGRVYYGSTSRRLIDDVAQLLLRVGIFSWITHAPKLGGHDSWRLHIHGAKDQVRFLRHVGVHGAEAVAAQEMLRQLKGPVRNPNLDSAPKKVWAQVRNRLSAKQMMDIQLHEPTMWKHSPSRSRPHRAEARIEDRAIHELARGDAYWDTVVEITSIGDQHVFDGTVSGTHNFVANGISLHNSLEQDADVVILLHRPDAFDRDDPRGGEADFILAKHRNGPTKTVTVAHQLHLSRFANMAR

[11] = target: T3, Apoptotic protease-activating factor 1 (Homo sapiens, UniProt O14727); type: functional
T3 sequence (O14727 whole entry): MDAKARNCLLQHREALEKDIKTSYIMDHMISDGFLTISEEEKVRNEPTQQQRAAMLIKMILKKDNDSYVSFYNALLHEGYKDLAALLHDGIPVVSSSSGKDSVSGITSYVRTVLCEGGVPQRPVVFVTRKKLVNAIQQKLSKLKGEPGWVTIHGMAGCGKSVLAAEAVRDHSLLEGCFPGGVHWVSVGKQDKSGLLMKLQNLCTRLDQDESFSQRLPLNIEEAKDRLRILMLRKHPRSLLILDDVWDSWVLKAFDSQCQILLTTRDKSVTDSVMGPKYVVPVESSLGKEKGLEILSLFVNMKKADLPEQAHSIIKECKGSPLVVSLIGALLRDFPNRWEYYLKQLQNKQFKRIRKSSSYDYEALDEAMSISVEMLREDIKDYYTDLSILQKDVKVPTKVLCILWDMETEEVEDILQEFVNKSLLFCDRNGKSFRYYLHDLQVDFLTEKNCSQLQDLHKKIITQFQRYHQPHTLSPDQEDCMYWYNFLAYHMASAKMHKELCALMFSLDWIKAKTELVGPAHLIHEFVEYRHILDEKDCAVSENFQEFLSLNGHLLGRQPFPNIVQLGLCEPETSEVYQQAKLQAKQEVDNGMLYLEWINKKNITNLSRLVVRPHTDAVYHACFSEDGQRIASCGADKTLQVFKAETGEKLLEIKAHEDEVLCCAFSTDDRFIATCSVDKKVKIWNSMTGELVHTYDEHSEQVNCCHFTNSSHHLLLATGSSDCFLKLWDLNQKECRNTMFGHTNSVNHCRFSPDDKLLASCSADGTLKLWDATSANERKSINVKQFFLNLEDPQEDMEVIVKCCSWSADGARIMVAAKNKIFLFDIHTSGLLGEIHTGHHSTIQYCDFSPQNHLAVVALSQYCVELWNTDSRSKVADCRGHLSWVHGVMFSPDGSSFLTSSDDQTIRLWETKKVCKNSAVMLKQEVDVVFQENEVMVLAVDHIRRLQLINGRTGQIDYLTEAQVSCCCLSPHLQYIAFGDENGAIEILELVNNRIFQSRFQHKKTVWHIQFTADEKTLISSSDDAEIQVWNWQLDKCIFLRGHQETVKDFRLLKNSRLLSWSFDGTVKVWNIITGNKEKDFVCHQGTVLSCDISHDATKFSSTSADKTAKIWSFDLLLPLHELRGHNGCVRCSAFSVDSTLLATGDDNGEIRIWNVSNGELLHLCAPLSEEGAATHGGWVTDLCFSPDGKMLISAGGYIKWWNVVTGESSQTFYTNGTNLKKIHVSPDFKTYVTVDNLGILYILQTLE

[12] = target: T4, Protein RecA (Mycobacterium tuberculosis, UniProt P9WHJ3); assay: Fluorescence Cell-Free Homogeneous Dose Retest to Identify Inhibitors of RecA-Intein Splicing Activity. [Related pubchem assays (depositor defined):AID2097, AID2223, AID489010, AID492950]; type: functional
T4 sequence (P9WHJ3 whole entry): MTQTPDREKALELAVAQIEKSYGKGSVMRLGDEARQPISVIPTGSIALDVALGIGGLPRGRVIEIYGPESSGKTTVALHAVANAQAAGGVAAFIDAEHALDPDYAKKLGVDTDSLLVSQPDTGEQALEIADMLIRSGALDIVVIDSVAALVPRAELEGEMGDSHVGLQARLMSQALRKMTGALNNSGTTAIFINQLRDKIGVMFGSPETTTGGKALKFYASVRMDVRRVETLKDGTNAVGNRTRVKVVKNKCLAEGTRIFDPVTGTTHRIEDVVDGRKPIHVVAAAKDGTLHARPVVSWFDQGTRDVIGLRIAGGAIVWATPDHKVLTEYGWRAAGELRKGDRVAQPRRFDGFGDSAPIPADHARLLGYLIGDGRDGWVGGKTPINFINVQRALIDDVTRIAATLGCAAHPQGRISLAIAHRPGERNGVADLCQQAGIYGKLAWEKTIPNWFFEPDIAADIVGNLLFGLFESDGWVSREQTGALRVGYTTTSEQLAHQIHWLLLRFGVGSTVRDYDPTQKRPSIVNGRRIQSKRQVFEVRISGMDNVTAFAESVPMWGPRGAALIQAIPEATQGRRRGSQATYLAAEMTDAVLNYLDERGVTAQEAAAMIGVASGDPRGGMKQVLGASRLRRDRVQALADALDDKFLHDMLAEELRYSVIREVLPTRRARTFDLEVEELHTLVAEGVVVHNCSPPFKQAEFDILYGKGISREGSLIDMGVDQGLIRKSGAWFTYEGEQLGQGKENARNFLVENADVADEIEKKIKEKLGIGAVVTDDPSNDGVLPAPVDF

[13] = target: Mitochondrial peptide methionine sulfoxide reductase (Bos taurus, UniProt P54149); type: functional;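 also: absorbance read-out, biochemical high-throughput dose-response screen for MsrA inhibitors, confirmatory; recombinant bovine MsrA coupled to E. coli TrxB with NADPH and selenocystamine; potency is for inhibitors of MsrA activity on DMSO substrate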
Mitochondrial peptide methionine sulfoxide reductase, sequence (P54149 whole entry): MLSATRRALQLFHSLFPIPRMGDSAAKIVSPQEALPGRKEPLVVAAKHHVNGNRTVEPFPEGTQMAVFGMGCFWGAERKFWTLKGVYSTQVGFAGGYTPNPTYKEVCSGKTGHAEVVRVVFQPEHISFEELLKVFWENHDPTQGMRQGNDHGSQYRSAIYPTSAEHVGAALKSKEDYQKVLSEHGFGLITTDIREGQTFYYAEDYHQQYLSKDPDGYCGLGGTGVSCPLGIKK

[14] = target: Tyrosyl-DNA phosphodiesterase 2 (Homo sapiens, UniProt O95551); assay: potency against TDP2 phosphodiesterase activity – biochemical, epi absorbance, IC50, dose response (AID 743297)
Tyrosyl-DNA phosphodiesterase 2, sequence (O95551 whole entry): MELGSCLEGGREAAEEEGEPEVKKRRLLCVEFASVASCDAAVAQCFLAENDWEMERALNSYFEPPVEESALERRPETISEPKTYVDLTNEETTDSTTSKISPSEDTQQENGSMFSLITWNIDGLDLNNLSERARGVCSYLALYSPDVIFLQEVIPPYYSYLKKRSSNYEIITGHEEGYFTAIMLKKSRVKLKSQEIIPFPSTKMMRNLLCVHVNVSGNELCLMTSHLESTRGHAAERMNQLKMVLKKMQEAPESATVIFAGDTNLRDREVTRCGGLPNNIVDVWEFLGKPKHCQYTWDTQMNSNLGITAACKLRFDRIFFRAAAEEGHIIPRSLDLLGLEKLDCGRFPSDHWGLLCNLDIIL

C[C@@H]1CN([C@H](C)CO)S(=O)(=O)c2ccc(C#Cc3ccncc3)cc2O[C@@H]1CN(C)C(=O)Nc1ccc2c(c1)OCO2
AC50 [1]: 4.77 µM (active) | AC50 [2]: 29.8 µM (active)

CC(c1ccc(Cl)cc1)N1CC2(C1)CN(C(C)C)C(=O)c1cccc(NC(=O)c3ccncc3)c1O2 (centres undefined)
AC50 [3]: 0.556 µM (active)

CNC(=O)C[C@H]1CC[C@H]2[C@@H](COc3ccc(NC(=O)C4CC4)cc3C(=O)N2C)O1
AC50 [4]: 2.59 µM (active)

CC(C)N1C[C@H](C)[C@@H](CN(C)C(=O)OC(C)(C)C)Oc2c(C(=O)O)cccc2C1=O
IC50 [5]: > 20 µM (inactive)

CCNC(=S)N/N=C/c1cc(C)n(-c2ccc(Cl)cc2)c1C
EC50 [6]: > 29.9 µM (inactive) | IC50 [7]: 1.13 µM (active) | IC50 [8]: > 29.9 µM (inactive) | EC50 [9]: 13.6 µM (inactive)

O=C(O)c1ccc(NC2=C(n3nnc4ccccc43)C(=O)c3ccccc3C2=O)cc1
AC50 [10]: 4.36 µM (active) | IC50 [11]: 7.8 µM (active) | EC50 [12]: 3 µM (active) | IC50 [13]: 11.6 µM (inactive) | IC50 [14]: 40.1 µM (inactive)

Reference: ChEMBL document CHEMBL1201862, “PubChem BioAssay data set” (2004)
